Structures are written as SMILES. pIC50: −log10 of the molar value. Where two headings read alike, the source gives them in different places.

The subject of data set [1] is PMA-differentiated U937 cells. The data set can be described thus: MTT Assay (cell viability). As to conditions: percentage loss of cell viability; for Cell Viability MTT Assay in D-U937 cells at 4 hr: 4 hr in 5% FCS; for Cell Viability MTT Assay in D-U937 cells at 24 hr: 24 hr in 10% FCS. The format is cell-based, Human. As to the method:
PMA-differentiated U937 cells were pre-incubated with compound for 4 hr in 5% FCS or 10% FCS for 24 hr. The supernatant was replaced with 200 μL of new media and 10 μL of MTT stock solution (5 mg/ml) added to each well. After 1 hr incubation, the media were removed, 200 μL of DMSO added to each well and the plates were shaken lightly for 1 hr prior to reading the absorbance at 550 nm. The percentage loss of cell viability was calculated for each well relative to vehicle (0.5% DMSO)-treatment (Table 3).

Data set [2] has as its system H2O2 induced pAkt in D-U937 cells. Briefly: PI3Kδ Cell Based Assay (H2O2 induced pAkt). As to conditions: Homo sapiens, dU937; for pIC50: activity range, D-U937 cells, read-out: Cellular Activity IC50 values (H2O2 induced pAkt D-U937 Cells). As to the method:
As a means of assessing PI3K 6 activation in response to stimuli, the phosphorylation status of the protein, Akt, a downstream product of PI3K6, signaling was determined. Human monocytic cells (U937 cells), were differentiated to macrophage-type cells by incubation with phorbol myristate acetate (PMA; 100 ng/mL) for 48 to 72 hr. […] The cells were washed with buffer (PBS containing 0.1% Triton X-100) and were incubated with blocking solution (1% BSA in PBS) for 1 hr and were then re-washed with buffer and incubated overnight with either anti-pAkt antibody or anti-pan-Akt antibody (both from Cell Signaling Technology). […] This reaction was stopped by addition of 100 μL of 1N H2SO4 solution. […] The ratio of pAkt signal to total Akt signal was used to quantitate the extent of PI3K δ activation. […] The IC50 values were calculated from the concentration-response curves generated by the serial dilutions of the test compounds (Table 3 and Table 4).

Data set [3] has as its target recombinant PI3 kinase δ (Homo sapiens (Human), UniProt O00329). Briefly: Enzyme Inhibition Assay (HTRF PI3K enzyme assay, TR-FRET). The format is biochemical. The conditions noted are these: for pIC50: activity range, read-out: PI3 Kinase Inhibition IC50 values at stated Isozyme δ. The source says:
(§1) PI3 kinases catalyse the phosphorylation of phosphatidylinositol 4,5-biphosphate (PIP2) to phosphatidylinositol 3,4,5-triphosphate (PIP3) in the presence of ATP and Mg^2+ ions. The PIP3 product can be detected by displacement of biotin-PIP3 from energy transfer complexes consisting of europium labelled anti-GST monoclonal antibody, a GST-tagged Pleckstrin homology (PH) domain, biotinylated PIP3 and streptavidin-allophycocyanin (APC) by the time-resolved fluorescence resonance energy transfer (TR-FRET) (HTRF® PI3K enzyme assay, Millipore). […] The PIP3 product formed by PI3K activity displaces biotin-PIP3 from the complex and results in a loss of energy transfer (decreasing signal).
(§2) The compound to be tested was added, at the desired final concentrations, to a mixture of PIP2 substrate and recombinant PI3 kinase α, δ or γ enzymes (Millipore), and the mixture incubated for 2 hr at RT. […] A stopping solution containing biotinylated PIP3 and the detection mix containing the GST tagged GRP1 pleckstrin homology (PH) domain and fluorophores were then added and the mixture was incubated at RT for 15-18 hr, prior to detection in a fluorescence microplate reader (Varioskan® Flash, ThermoFisher Scientific).
In general terms: Time-resolved FRET reads energy transfer from a long-lived donor to a nearby acceptor.

The target of data set [4] is recombinant PI3 kinase α (Homo sapiens (Human), UniProt P42336). Described as above. The format is biochemical. The conditions noted are these: for pIC50: activity range, read-out: PI3 Kinase Inhibition IC50 values at stated Isozyme α.
Text: as §1, §2

Data set [5] deals with recombinant PI3 kinase γ (Homo sapiens (Human), UniProt P48736). The data set is described as above. The conditions noted are these: for pIC50: activity range, read-out: PI3 Kinase Inhibition IC50 values at stated Isozyme γ. The format is biochemical.
Text: as §1, §2

Sequence of recombinant PI3 kinase α (P42336 whole entry): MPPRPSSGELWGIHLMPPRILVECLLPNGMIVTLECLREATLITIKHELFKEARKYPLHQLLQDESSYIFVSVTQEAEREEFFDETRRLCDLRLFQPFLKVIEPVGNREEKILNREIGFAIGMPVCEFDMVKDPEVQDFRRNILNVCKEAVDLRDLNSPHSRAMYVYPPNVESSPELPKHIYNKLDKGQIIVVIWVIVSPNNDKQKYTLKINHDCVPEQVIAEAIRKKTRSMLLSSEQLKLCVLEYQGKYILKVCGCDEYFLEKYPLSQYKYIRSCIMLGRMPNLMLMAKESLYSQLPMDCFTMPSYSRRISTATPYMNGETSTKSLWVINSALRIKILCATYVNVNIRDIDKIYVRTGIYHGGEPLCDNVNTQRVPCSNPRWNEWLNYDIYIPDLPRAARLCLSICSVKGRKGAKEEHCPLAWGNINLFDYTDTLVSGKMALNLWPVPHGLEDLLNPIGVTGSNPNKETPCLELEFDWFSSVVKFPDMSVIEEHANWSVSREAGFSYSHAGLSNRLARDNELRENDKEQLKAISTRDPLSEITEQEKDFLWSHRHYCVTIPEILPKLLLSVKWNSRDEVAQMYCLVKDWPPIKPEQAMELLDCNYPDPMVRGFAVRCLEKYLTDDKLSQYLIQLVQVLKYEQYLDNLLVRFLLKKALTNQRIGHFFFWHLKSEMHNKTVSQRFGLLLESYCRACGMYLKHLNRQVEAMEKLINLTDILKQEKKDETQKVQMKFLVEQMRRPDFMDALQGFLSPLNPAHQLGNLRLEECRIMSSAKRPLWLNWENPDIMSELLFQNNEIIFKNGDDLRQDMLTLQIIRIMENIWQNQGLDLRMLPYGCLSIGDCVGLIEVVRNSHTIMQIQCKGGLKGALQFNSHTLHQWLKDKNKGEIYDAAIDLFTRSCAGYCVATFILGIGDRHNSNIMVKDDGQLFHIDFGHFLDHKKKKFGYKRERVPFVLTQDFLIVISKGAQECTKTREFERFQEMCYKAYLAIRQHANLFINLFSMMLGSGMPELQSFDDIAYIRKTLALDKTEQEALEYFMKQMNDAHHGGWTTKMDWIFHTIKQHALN
Sequence of recombinant PI3 kinase α (P27986 whole entry partner): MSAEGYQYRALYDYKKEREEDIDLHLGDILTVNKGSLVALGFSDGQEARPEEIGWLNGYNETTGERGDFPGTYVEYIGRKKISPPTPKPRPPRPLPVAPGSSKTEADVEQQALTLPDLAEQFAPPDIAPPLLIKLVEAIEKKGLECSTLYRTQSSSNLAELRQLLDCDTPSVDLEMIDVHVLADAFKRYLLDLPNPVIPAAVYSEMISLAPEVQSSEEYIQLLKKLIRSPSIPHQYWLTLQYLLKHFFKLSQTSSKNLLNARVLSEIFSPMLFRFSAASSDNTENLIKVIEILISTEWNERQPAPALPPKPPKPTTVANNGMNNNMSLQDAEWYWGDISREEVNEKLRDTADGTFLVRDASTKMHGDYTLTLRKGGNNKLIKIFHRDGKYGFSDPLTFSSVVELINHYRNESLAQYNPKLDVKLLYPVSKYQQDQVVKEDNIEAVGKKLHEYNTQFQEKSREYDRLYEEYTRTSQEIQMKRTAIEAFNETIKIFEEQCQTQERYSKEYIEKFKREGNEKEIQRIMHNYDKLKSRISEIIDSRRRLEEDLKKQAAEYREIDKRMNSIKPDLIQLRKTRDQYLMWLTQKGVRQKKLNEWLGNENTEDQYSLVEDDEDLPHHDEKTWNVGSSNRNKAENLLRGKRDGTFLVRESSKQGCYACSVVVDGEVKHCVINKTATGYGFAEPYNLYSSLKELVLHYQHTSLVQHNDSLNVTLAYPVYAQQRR
Sequence of recombinant PI3 kinase δ (O00329 whole entry): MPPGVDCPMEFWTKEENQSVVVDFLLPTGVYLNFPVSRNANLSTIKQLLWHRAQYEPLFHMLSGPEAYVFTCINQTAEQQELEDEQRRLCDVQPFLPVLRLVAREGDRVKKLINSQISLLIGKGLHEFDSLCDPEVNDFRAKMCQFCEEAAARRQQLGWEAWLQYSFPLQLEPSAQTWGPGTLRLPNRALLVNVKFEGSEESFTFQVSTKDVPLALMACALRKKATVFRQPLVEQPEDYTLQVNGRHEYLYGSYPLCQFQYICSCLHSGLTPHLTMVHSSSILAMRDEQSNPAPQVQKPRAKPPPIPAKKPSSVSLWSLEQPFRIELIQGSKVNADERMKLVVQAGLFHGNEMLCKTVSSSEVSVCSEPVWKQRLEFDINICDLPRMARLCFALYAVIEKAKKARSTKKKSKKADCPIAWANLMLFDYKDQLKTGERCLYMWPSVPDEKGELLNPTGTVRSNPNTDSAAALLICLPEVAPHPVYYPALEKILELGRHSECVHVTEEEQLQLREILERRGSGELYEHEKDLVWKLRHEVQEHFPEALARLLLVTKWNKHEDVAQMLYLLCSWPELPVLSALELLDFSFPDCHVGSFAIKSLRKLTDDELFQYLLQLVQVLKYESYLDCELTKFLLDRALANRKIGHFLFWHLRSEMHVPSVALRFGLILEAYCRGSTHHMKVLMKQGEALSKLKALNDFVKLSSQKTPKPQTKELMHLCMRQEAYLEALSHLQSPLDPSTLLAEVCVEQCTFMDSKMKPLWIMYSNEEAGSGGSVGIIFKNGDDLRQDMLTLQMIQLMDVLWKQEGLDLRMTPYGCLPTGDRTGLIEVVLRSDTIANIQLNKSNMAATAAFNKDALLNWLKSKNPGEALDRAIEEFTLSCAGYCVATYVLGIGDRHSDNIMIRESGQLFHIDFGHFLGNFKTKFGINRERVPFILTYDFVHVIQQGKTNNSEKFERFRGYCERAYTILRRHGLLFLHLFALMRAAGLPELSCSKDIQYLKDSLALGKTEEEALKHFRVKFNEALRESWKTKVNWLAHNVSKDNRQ
Sequence of recombinant PI3 kinase δ (P27986 whole entry partner): as the sequence (P27986 whole entry partner) above
Sequence of recombinant PI3 kinase γ (P48736 whole entry): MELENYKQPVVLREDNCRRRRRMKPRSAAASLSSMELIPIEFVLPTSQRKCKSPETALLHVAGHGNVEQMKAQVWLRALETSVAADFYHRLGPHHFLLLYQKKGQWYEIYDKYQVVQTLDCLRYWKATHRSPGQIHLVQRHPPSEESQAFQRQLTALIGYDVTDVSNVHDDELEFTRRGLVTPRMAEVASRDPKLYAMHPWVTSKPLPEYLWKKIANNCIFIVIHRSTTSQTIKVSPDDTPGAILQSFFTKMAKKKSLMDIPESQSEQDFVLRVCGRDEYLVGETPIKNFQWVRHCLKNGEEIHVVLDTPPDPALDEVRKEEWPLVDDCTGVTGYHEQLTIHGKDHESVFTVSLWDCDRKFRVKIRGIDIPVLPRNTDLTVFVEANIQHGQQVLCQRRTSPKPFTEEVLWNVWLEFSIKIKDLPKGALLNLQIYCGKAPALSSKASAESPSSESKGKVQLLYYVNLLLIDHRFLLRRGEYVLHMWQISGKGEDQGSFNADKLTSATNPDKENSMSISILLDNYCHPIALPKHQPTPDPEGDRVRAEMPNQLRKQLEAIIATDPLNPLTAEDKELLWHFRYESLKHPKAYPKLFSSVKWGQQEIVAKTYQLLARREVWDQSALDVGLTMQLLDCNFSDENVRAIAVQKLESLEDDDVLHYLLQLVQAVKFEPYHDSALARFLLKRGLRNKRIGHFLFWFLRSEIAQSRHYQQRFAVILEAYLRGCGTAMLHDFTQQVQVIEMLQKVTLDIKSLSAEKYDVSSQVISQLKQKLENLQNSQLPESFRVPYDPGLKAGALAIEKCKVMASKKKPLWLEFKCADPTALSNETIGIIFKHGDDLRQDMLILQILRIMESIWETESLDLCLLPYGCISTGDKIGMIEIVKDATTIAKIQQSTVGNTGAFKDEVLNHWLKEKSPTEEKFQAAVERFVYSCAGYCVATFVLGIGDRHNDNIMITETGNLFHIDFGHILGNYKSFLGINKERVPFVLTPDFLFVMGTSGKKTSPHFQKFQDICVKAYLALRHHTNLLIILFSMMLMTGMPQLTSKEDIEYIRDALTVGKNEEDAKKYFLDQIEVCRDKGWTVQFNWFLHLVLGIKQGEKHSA

In general, pIC50 refers to the IC50 on a negative log10 scale, so that one unit is a factor of ten. On to `C#Cc1cccc2nc(Cn3nc(-c4ccc(O)c(F)c4)c4c(N)ncnc43)n(Cc3ccccc3Cl)c(=O)c12` [Example 36, 2-((4-Amino-3-(3-fluoro-4-hydroxyphenyl)-1H-pyrazolo[3,4-d]pyrimidin-1-yl)methyl)-3-(2-chlorobenzyl)-5-ethynylquinazolin-4(3H)-one], for which the “Cell Viability MTT Assay in D-U937 cells at 4 hr” value in data set [1] is recorded as “− (− <30%)”. In addition, the “Cell Viability MTT Assay in D-U937 cells at 24 hr” value in data set [1] was “− (− <30%)”. Further, the pIC50 in data set [2] was above 8.00; in data set [3], above 7.30; in data set [4] it was 6.00 to 7.30; in data set [5] it was below 6.00.

For orientation: IC50 means the concentration that inhibits the measured activity by half. On to `COCC#Cc1cccc2nc(Cn3nc(-c4cccc(O)c4)c4c(N)ncnc43)n(Cc3cccc(C(F)(F)F)c3)c(=O)c12` [Example 37, 2-((4-Amino-3-(3-hydroxyphenyl)-1H-pyrazolo[3,4-d]pyrimidin-1-yl)methyl)-5-(3-methoxyprop-1-ynyl)-3-(3-(trifluoromethyl)benzyl)quinazolin-4(3H)-one], for which the “Cell Viability MTT Assay in D-U937 cells at 4 hr” value in data set [1] is listed as “− (− <30%)”. The “Cell Viability MTT Assay in D-U937 cells at 24 hr” value in data set [1] was “− (− <30%)”. Further, the pIC50 in data set [2] was above 8.00; in data set [3], above 7.30; in data set [4] it was 6.00 to 7.30; in data set [5], below 6.00. The half-maximal inhibitory concentration (IC50) in data set [2] (read-out: Cellular Activity IC50 values (H2O2 induced pAkt (nM) D-U937 Cells)) came to 0.33 nM; in data set [3] (read-out: PI3 Kinase Inhibition IC50 values at stated Isozyme (nM) δ) it was 12 nM; in data set [4] (read-out: PI3 Kinase Inhibition IC50 values at stated Isozyme (nM) α), 474 nM; in data set [5] (read-out: PI3 Kinase Inhibition IC50 values at stated Isozyme (nM) γ), 1610 nM.

Turning to `Nc1ncnc2c1c(-c1ccc(O)cc1)nn2Cc1nc2cccc(C#CCC3CCCC3)c2c(=O)n1Cc1ccccc1Cl` [Example 39, 2-((4-Amino-3-(4-hydroxyphenyl)-1H-pyrazolo[3,4-d]pyrimidin-1-yl)methyl)-3-(2-chlorobenzyl)-5-(3-cyclopentylprop-1-ynyl)quinazolin-4(3H)-one], the “Cell Viability MTT Assay in D-U937 cells at 4 hr” value in data set [1] is recorded as “− (− <30%)”. Also, in data set [1], the “Cell Viability MTT Assay in D-U937 cells at 24 hr” value was “− (− <30%)”. Moreover, the pIC50 is above 8.00 in data set [2], above 7.30 in data set [3], above 7.30 in data set [4] and 6.00 to 7.30 in data set [5].

Regarding `Nc1ncnc2c1c(-c1ccc(O)cc1)nn2Cc1nc2cccc(C#CCOCc3ccccc3)c2c(=O)n1Cc1ccccc1Cl` [Example 40, 2-((4-Amino-3-(4-hydroxyphenyl)-1H-pyrazolo[3,4-d]pyrimidin-1-yl)methyl)-5-(3-(benzyloxy)prop-1-ynyl)-3-(2-chlorobenzyl)quinazolin-4(3H)-one], the “Cell Viability MTT Assay in D-U937 cells at 4 hr” value in data set [1] is “− (− <30%)”. Besides, in data set [1], the “Cell Viability MTT Assay in D-U937 cells at 24 hr” value was “− (− <30%)”. Besides, the negative-log IC50 (pIC50) was above 8.00 in data set [2], above 7.30 in data set [3], 6.00 to 7.30 in data set [4] and 6.00 to 7.30 in data set [5].

As to `Nc1ncnc2c1c(-c1ccc(O)cc1)nn2Cc1nc2cccc(C#CCCCO)c2c(=O)n1Cc1ccccc1Cl` [Example 41, 2-((4-Amino-3-(4-hydroxyphenyl)-1H-pyrazolo[3,4-d]pyrimidin-1-yl)methyl)-3-(2-chlorobenzyl)-5-(5-hydroxypent-1-ynyl)quinazolin-4(3H)-one], in data set [1], the “Cell Viability MTT Assay in D-U937 cells at 4 hr” value is “− (− <30%)”. Besides, in data set [1], the “Cell Viability MTT Assay in D-U937 cells at 24 hr” value is “− (− <30%)”. Also, the pIC50 was above 8.00 in data set [2], above 7.30 in data set [3], 6.00 to 7.30 in data set [4] and 6.00 to 7.30 in data set [5].

For `C#Cc1cccc2nc(Cn3nc(-c4ccc(O)cc4)c4c(N)ncnc43)n(Cc3cc(OC)ccc3F)c(=O)c12` [Example 42, 2-((4-Amino-3-(4-hydroxyphenyl)-1H-pyrazolo[3,4-d]pyrimidin-1-yl)methyl)-5-ethynyl-3-(2-fluoro-5-methoxybenzyl)quinazolin-4(3H)-one], the “Cell Viability MTT Assay in D-U937 cells at 4 hr” value in data set [1] was “− (− <30%)”. Also, the “Cell Viability MTT Assay in D-U937 cells at 24 hr” value in data set [1] was “− (− <30%)”. Besides, the pIC50 in data set [2] is above 8.00; in data set [3], above 7.30; in data set [4], 6.00 to 7.30; in data set [5] it was 6.00 to 7.30.

Consider `C#Cc1cccc2nc(Cn3nc(-c4ccc(O)cc4)c4c(N)ncnc43)n(Cc3ccc(Cl)c(Cl)c3)c(=O)c12` [Example 43, 2-((4-Amino-3-(4-hydroxyphenyl)-1H-pyrazolo[3,4-d]pyrimidin-1-yl)methyl)-3-(3,4-dichlorobenzyl)-5-ethynylquinazolin-4(3H)-one], for which the “Cell Viability MTT Assay in D-U937 cells at 4 hr” value in data set [1] is “− (− <30%)”. Moreover, in data set [1], the “Cell Viability MTT Assay in D-U937 cells at 24 hr” value is on record as “− (− <30%)”. Also, the pIC50 in data set [2] was above 8.00; in data set [3], above 7.30; in data set [4] it was 6.00 to 7.30; in data set [5], 6.00 to 7.30.

For the molecule `C#Cc1cccc2nc(Cn3nc(-c4ccc(O)cc4)c4c(N)ncnc43)n(Cc3ccccc3)c(=O)c12` [Example 44, 2-((4-Amino-3-(4-hydroxyphenyl)-1H-pyrazolo[3,4-d]pyrimidin-1-yl)methyl)-3-benzyl-5-ethynylquinazolin-4(3H)-one], the “Cell Viability MTT Assay in D-U937 cells at 4 hr” value in data set [1] is given as “− (− <30%)”. Moreover, in data set [1], the “Cell Viability MTT Assay in D-U937 cells at 24 hr” value is “− (− <30%)”. For the same molecule, the pIC50 in data set [2] is above 8.00; in data set [3], above 7.30; in data set [4] it was below 6.00; in data set [5] it was 6.00 to 7.30.

Take `C#Cc1cccc2nc(Cn3nc(-c4ccc(O)cc4)c4c(N)ncnc43)n(Cc3ccccc3C(F)(F)F)c(=O)c12` [Example 45, 2-((4-Amino-3-(4-hydroxyphenyl)-1H-pyrazolo[3,4-d]pyrimidin-1-yl)methyl)-5-ethynyl-3-(2-trifluoromethylbenzyl)quinazolin-4(3H)-one]: in data set [1], the “Cell Viability MTT Assay in D-U937 cells at 4 hr” value is “− (− <30%)”. The “Cell Viability MTT Assay in D-U937 cells at 24 hr” value in data set [1] is “− (− <30%)”. Besides, the pIC50 is above 8.00 in data set [2], above 7.30 in data set [3], 6.00 to 7.30 in data set [4] and 6.00 to 7.30 in data set [5].

Consider `C#Cc1cccc2nc(Cn3nc(-c4ccc(O)cc4)c4c(N)ncnc43)n(Cc3ccc(OC)cc3)c(=O)c12` [Example 46, 2-((4-Amino-3-(4-hydroxyphenyl)-1H-pyrazolo[3,4-d]pyrimidin-1-yl)methyl)-5-ethynyl-3-(4-methoxybenzyl)quinazolin-4(3H)-one], for which, in data set [1], the “Cell Viability MTT Assay in D-U937 cells at 4 hr” value is reported as “− (− <30%)”. The “Cell Viability MTT Assay in D-U937 cells at 24 hr” value in data set [1] was “− (− <30%)”. The pIC50 in data set [2] is above 8.00; in data set [3], above 7.30; in data set [4], 6.00 to 7.30; in data set [5] it was 6.00 to 7.30.

Consider `C#Cc1cccc2nc(Cn3nc(-c4ccc(O)cc4)c4c(N)ncnc43)n(Cc3ccc(C#N)cc3)c(=O)c12` [Example 47, 4-((2-((4-Amino-3-(4-hydroxyphenyl)-1H-pyrazolo[3,4-d]pyrimidin-1-yl)methyl)-5-ethynyl-4-oxoquinazolin-3(4H)-yl)methyl)benzonitrile], for which, in data set [1], the “Cell Viability MTT Assay in D-U937 cells at 4 hr” value was “− (− <30%)”. Further, the “Cell Viability MTT Assay in D-U937 cells at 24 hr” value in data set [1] is “− (− <30%)”. For the same molecule, the pIC50 was above 8.00 in data set [2], above 7.30 in data set [3], 6.00 to 7.30 in data set [4] and 6.00 to 7.30 in data set [5].

Regarding `C#Cc1cccc2nc(Cn3nc(-c4ccc(O)cc4)c4c(N)ncnc43)n(Cc3ccc(OC)cc3F)c(=O)c12` [Example 48, 2-((4-Amino-3-(4-hydroxyphenyl)-1H-pyrazolo[3,4-d]pyrimidin-1-yl)methyl)-5-ethynyl-3-(2-fluoro-4-methoxybenzyl)quinazolin-4(3H)-one], the “Cell Viability MTT Assay in D-U937 cells at 4 hr” value in data set [1] is “− (− <30%)”. In addition, the “Cell Viability MTT Assay in D-U937 cells at 24 hr” value in data set [1] is listed as “− (− <30%)”. Also, the pIC50 in data set [2] is above 8.00; in data set [3], above 7.30; in data set [4] it was 6.00 to 7.30; in data set [5], 6.00 to 7.30.

The record behind these values is patent US9321773B2, “Compounds” (Respivert Ltd, priority 2009, dated 2016).
